Assays:
[1] = system: HT-22 cells; assay: Protection against ROS production induced by glutamate in HT-22 cells; type: cell-based; conditions: Mus musculus
[2] = system: rotenone induced rat model of PD; assay: Rotenone model of PD: body weight, neurological and behavioral assessment; type: in vivo; conditions: MB 500 μg/kg/day i.p.
Protocol: The accelerating rotarod, a motor driven treadmill (Omnitech Electronics, Columbus, Ohio) measures running coordination and motor performance. The rotor consisted of a nylon cylinder with a 7 cm diameter mounted horizontally 35.5 cm above a padded surface. On a given trial, the rats were placed on the cylinder, the cylinder was rotated, and a timer switch was simultaneously activated. Acceleration continued from 0 to a maximum of 44 rpm until animals were unable to stay on top of the rotating rod and fell to the padded surface. […] When the rat landed on the surface, a photosensitive switch was tripped and the timer stopped. Rats were subjected to this test two sessions a day, three trials per session, for 7 sessions. A 20-minute resting period was given between each trial. Animals were given at least two hours break time between sessions each day. Retention times on the rotating treadmill were recorded and plotted for analysis.
Neurological assessment was performed by three evaluators blind to treatment conditions. The evaluators were initially trained until they produced consistent scores when evaluating rats in these tests. Subsequently, experimental subjects were randomized and presented to the evaluators individually. For each session, which consisted of three trials, an individual evaluator scored a rat in only one trial; thus, the final score for a session for each animal was the average score of the three evaluators. The category included: tremor; locomotion; bradykinesia; hypokinesia; posture; and gross motor skills.
Catalepsy was measured by standard bar test and grid test adapted from previous publication. For bar test, the rats were placed with both front paws grasp on a horizontal bar which was 9 cm above the surface. The time, each animal took to remove one paw from the bar was manually measured by a stopwatch. For grid test, rats were placed on a vertical wire grid (25.5 cm width and 44 cm high with a space of 1 cm between each wire) and catalepsy was determined by the length of time the animals maintained all four paws on the grid using a stopwatch. The maximum descent latency was set at 300 seconds for the bar test and 60 seconds for grid test.
For gait analysis, the fore and hind paws of each rat were painted with blue and red dye, respectively. The animals were allowed to walk across an absorbent paper covered straight alley runway (150 cm long, 20 cm wide, opaque walls 20 cm tall) into a dark compartment. Before the test, animals were put in the dark compartment for 2 minutes to habituate to the environment and 3 pre-training runs were conducted for all rats. Three trials were conducted to obtain clear footprints for each animal. Prolonged stop or turning backward in the runway was considered failed trials. The distance of individual steps were analyzed by two independent blinded observers.

[3] = system: rotenone induced rat model of PD; assay: Rotenone model of PD: striatal monoamines, brain complex I-III activity and total ROS; type: in vivo
Protocol: All mitochondrial activity assays were performed according to previous publications with minimal modifications for complex I (Lenaz et al., 2004), complex I-III, complex II, complex III, and II-III (Trounce et al., 1996). All assays used a similar master mix that contained potassium phosphate pH 7.4 (50 mM), BSA 2.5mg/ml, MgCl2 5 mM, KCN (2 mM), and various inhibitors or substrates, including rotenone (6 μM), antimycin A (2 μM), NADH (150 μM), CoQ1 (60 μM), cyt c (50 μM), succinate (8 mM), and DBH2 (100 μM). Complex I activity was monitored by adding NADH to the mix with or without rotenone/antimycin A. The final data were normalized to blank values at time zero. The reaction was monitored in a kinetic spectrophotometer at 340 nm. Complex I activity was measured in arbitrary units and normalized to control levels for statistical analysis. Isolated mitochondria equivalent to 40-200 μg mitochondrial protein was used for each assay, except for assays with inhibitors, when larger amount of mitochondria (3 to 5 folds) were used to ensure that inhibition was distinguishable. Final data were normalized to control levels. For complex I-III activity, the reaction was initiated with the addition of NADH, cyt c was used as final substrate and its reduction was monitored at 550 nm. For assay of complex II-III activity, succinate was added instead of NADH, and the electron transfer to cyt c was performed according to previous publications (Atamna et al., 2008). To test whether the electrons from the reduced form of MB (MBH2) can be transferred to cyt c in mitochondrial lysate, we added 10 μM 2,7-dichlorofluorescin (DCFH, Invitrogen, Carlsbad, Calif.) to the reaction system. Free radicals convert non-fluorescent DCFH to highly fluorescent DCF (Ex, 488 nm, and Em, 530 nm). In the presence of cyt c, which accepts electrons from MBH2, conversion of DCFH to DCF is decreased.
Rats were assigned to three groups: control animals received vehicle infusion and daily saline injection (Veh/Sal N=6-8); a second group received rotenone infusion at the dose of 5 mg/kg/day and daily saline injection (ROT/Saline N=8-11); and the third group received rotenone infusion (5 mg/kg/day) and MB injection at the dose of 500 μg/kg/day (ROT/MB N=8-10). Vehicle or rotenone was infused via Alzet osmotic mini pumps that were filled with vehicle or rotenone dissolved in vehicle (equal volumes of dimethylsulfoxide and polyethylene glycol). Pumps containing vehicle or rotenone were sterilized with UV irradiation and implanted subcutaneously on the back. Intraperitoneal injections were administered with normal saline or MB, 500 μg/kg/day, diluted in normal saline to 500 μl of final volume. Rats were sacrificed on day 8 at four hours after last dose of MB or saline treatment.
After completion of neurological assessments and behavioral tests, rats were killed on the 8th day of rotenone infusion under anesthesia induced by xylazine (20 mg/kg, i.p.) and ketamine (100 mg/kg, i.p.). All osmotic pumps were checked for the residual liquid to ensure proper drug delivery. One hemisphere was fixed by 4% paraformaldehyde in phosphate buffer for 48 hr until processing for sectioning. The other hemisphere was snap-frozen in liquid nitrogen, and kept at −80° C. until extraction for biochemical analysis. Striatum dissected from a separate set of animals were used for analysis of monoamines by HPLC. […]

[4] = system: rotenone induced rat model of PD
Protocol: Rat hemispheres were sequentially incubated in 10%, 20% and 30% sucrose over night. The brains were then frozen in optimal cutting temperature) compound (VWR, San Francisco Calif.) and sectioned in the coronal plane with a cryostat to produce 20 μm floating sections. For single immunohistochemistry studies, 20-μm sections were blocked with 5% normal goat serum and incubated in primary antibodies at 4° C. over night. […] Double stained sections were examined with conventional fluorescence microscopy, and images were captured on a Zeiss microscope linked to an image analysis system with selective filter sets to visualize FITC, rhodamine, and DAPI separately. […]

EC50 [1]: 0.0204 µM
SMILES: CN(C)c1ccc2nc3ccc(=[N+](C)C)cc-3sc2c1 [methylene blue]
Catalepsy, bar test descent latency [2]: completely reversed
Catalepsy, grid test latency to fall [2]: attenuated
Neurological scores (randomized blinded assessment) [2]: significantly improved
Rotarod performance deficits [2]: almost completely prevented
Rotenone induced body weight loss [2]: attenuated
Stride length in gait analysis [2]: improved
Decrease of complex I-III activity in brain extracts ([3]; MB 500 μg/kg/day i.p.): prevented
Overall ROS in brain extracts ([3]; MB 500 μg/kg/day i.p.): attenuated in the ROT/MB group to basal level
Striatum L-DOPAC depletion ([3]; MB 500 μg/kg/day i.p.): almost completely rescued
Striatum dopamine depletion ([3]; MB 500 μg/kg/day i.p.): almost completely rescued
Striatum 5-HT levels ([3]; all three groups): no significant differences
TH-positive cells and nerve fiber in SNC and VTN ([4]; ROT/MB animals): a sufficient amount of TH-positive cell and nerve fiber were observed
Fluoro-jade B-positive TH neurons ([4]; ROT/MB group, 4 out of 11 ROT/Sal animals positive): not found
Ubiquitin positive inclusion bodies ([4]; ROT/MB group, 6 out 11 ROT/Sal rats positive): not found

From US20140148446A1, “COMPOUNDS THAT ENABLE ALTERNATIVE MITOCHONDRIAL ELECTRON TRANSFER” (University of North Texas Health Science Center, priority 2010, published 2014)
